Assays:
human PDE5 = target: T1, human PDE5 (Homo sapiens, UniProt O76074); assay: Inhibition of PDE5 activity (SPA, [3H]cGMP, platelet lysate); format: biochemical; conditions: PDE5 from human platelet lysate; values given as bins; read-out: PDE5A inhibitory values measured as −logIC50 (converted)
T1 construct: from tissue; host or cells: human platelets from fresh donor blood (10,000 g supernatant of sonicated platelets)
Method in brief: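 Human platelet lysate served as PDE5 source, with 1 μM motapizone and 10 nM PDE2 inhibitor present; […] plus [3H]cGMP tracer, pH 7.4, 5 mM Mg2+, 10-20% substrate turnover. After 5 min preincubation, 15 min at 37 °C, stopped with SPA beads and IBMX; IC50 by non-linear regression.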

PDE4B1 = target: T2, PDE4B1 (Homo sapiens, UniProt Q07343); assay: Inhibition of PDE4B1 activity (SPA, [3H]cAMP); format: biochemical; conditions: recombinant PDE4B1 expressed in SF21 cells; 0.5 pM [sic] cAMP; values given as bins; read-out: PDE4B1 inhibitory values measured as −logIC50 (converted)
T2 construct: made in house; host or cells: SF21 insect cells (baculovirus; pCR-Bac vector)
Method in brief: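 Recombinant human PDE4B1 (Sf21 cell 1000 g supernatant) in 20 mM Tris pH 7.4, 0.1 mg/ml BSA, 5 mM Mg2+, […] with [3H]cAMP tracer, enzyme giving 10-20% conversion. After 5 min preincubation at 37 °C, 15 min reaction, stopped by SPA beads with IBMX; IC50 by non-linear regression.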

T2 sequence (Q07343 whole entry): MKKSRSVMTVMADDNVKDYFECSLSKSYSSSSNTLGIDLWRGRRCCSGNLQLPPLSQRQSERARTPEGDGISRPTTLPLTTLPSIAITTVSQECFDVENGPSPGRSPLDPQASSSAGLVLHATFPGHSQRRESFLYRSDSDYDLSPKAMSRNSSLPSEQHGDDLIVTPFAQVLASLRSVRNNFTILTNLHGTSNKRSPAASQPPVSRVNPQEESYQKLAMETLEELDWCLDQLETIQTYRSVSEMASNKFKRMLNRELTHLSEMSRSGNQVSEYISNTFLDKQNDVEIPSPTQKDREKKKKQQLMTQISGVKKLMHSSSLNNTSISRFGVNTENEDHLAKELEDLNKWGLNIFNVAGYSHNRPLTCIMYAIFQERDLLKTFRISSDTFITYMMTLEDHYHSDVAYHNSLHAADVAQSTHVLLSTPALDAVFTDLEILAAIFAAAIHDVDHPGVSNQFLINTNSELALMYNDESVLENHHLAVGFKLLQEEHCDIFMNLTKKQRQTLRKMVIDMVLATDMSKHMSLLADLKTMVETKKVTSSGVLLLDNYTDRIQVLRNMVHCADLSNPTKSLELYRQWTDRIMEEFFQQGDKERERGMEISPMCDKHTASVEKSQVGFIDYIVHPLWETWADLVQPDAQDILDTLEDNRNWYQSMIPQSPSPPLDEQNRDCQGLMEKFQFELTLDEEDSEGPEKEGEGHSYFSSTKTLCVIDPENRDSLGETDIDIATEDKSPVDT

Q: Which results are given for `CCOc1cc2c(cc1OC)C(c1ccc(C(=O)N3CCC(n4c(=O)c5sc(-c6ccccc6)cc5n(Cc5nnc(C(C)(C)C)o5)c4=O)CC3)cc1)=N[C@@H]1CCSC[C@H]21` [Example 58, 1-[(5-tert-butyl-1,3,4-oxadiazol-2-yl)methyl]-3-[1-({4-[(4aR,10bR)-9-ethoxy-8-methoxy-3,4,4a,10b-tetrahydro-1H-thiopyrano[4,3-c]isoquinolin-6-yl]phenyl}carbonyl)piperidin-4-yl]-6-phenylthieno[3,2-d]pyrimidine-2,4(1H,3H)-dione]?
A: IC50 (human PDE5): > 100 nM; IC50 (PDE4B1): 1 to 10 nM

Q: `CCOc1cc2c(cc1OC)C(c1ccc(C(=O)N3CCC(n4c(=O)c5sc(-c6ccccc6)cc5n(Cc5cc(C)on5)c4=O)CC3)cc1)=N[C@@H]1CCSC[C@H]21` [Example 6, 3-[1-({4-[(4aR,10bR)-9-ethoxy-8-methoxy-3,4,4a,10b-tetrahydro-1H-thiopyrano[4,3-c]isoquinolin-6-yl]phenyl}carbonyl)piperidin-4-yl]-1-[(5-methylisoxazol-3-yl)methyl]-6-phenylthieno[3,2-d]pyrimidine-2,4(1H,3H)-dione] was tested. Which IC50 (human PDE5) did it give?
A: 10 to 100 nM

Q: And the IC50 (PDE4B1)?
A: 1 to 10 nM

Q: Which IC50 (human PDE5) does the source give for `CCOc1cc2c(cc1OC)C(c1ccc(C(=O)N3CCC(n4c(=O)c5sc(-c6ccccc6)cc5n(Cc5cc(CC)no5)c4=O)CC3)cc1)=N[C@@H]1CCSC[C@H]21` [Example 3, 3-[1-({4-[(4aR,10bR)-9-ethoxy-8-methoxy-3,4,4a,10b-tetrahydro-1H-thiopyrano[4,3-c]isoquinolin-6-yl]phenyl}carbonyl)piperidin-4-yl]-1-[(3-ethylisoxazol-5-yl)methyl]-6-phenylthieno[3,2-d]pyrimidine-2,4(1H,3H)-dione] here?
A: < 10 nM

Q: And the IC50 (PDE4B1)?
A: 1 to 10 nM

Q: Which IC50 (human PDE5) does the source give for `CCOc1cc2c(cc1OC)C(c1ccc(C(=O)N3CCC(n4c(=O)c5sc(-c6ccccc6)cc5n(Cc5coc(CC)n5)c4=O)CC3)cc1)=N[C@@H]1CCSC[C@H]21` [Example 16, 3-[1-({4-[(4aR,10bR)-9-ethoxy-8-methoxy-3,4,4a,10b-tetrahydro-1H-thiopyrano[4,3-c]isoquinolin-6-yl]phenyl}carbonyl)piperidin-4-yl]-1-[(2-ethyl-1,3-oxazol-4-yl)methyl]-6-phenylthieno[3,2-d]pyrimidine-2,4(1H,3H)-dione] here?
A: > 100 nM

Q: And the IC50 (PDE4B1)?
A: 1 to 10 nM

Q: For `CCOc1cc2c(cc1OC)C(c1ccc(C(=O)N3CCC(n4c(=O)c5sc(-c6ccccc6)cc5n(Cc5cnn(CC)n5)c4=O)CC3)cc1)=N[C@@H]1CCSC[C@H]21` [Example 21, 3-[1-({4-[(4aR,10bR)-9-ethoxy-8-methoxy-3,4,4a,10b-tetrahydro-1H-thiopyrano[4,3-c]isoquinolin-6-yl]phenyl}carbonyl)piperidin-4-yl]-1-[(2-ethyl-2H-1,2,3-triazol-4-yl)methyl]-6-phenylthieno[3,2-d]pyrimidine-2,4(1H,3H)-dione], which IC50 (human PDE5) is on record?
A: 10 to 100 nM

Q: And the IC50 (PDE4B1)?
A: 1 to 10 nM

Q: Which results are given for `CCOc1cc2c(cc1OC)C(c1ccc(C(=O)N3CCC(n4c(=O)c5sc(-c6ccccc6)cc5n(Cc5nc(CC)no5)c4=O)CC3)cc1)=N[C@@H]1CCSC[C@H]21` [Example 7, 3-(1-{4-[(4aR,10bR)-9-ethoxy-8-methoxy-3,4,4a,10b-tetrahydro-1H-thiopyrano[4,3-c]isoquinolin-6-yl]benzoyl}piperidin-4-yl)-1-[(3-ethyl-1,2,4-oxadiazol-5-yl)methyl]-6-phenylthieno[3,2-d]pyrimidine-2,4(1H,3H)-dione]?
A: IC50 (human PDE5): < 10 nM; IC50 (PDE4B1): 1 to 10 nM

Q: With `CCOc1cc2c(cc1OC)C(c1ccc(C(=O)N3CCC(n4c(=O)c5sc(-c6ccccc6)cc5n(Cc5nc(CSC)no5)c4=O)CC3)cc1)=N[C@@H]1CCSC[C@H]21` [Example 11, 3-[1-({4-[(4aR,10bR)-9-ethoxy-8-methoxy-3,4,4a,10b-tetrahydro-1H-thiopyrano[4,3-c]isoquinolin-6-yl]phenyl}carbonyl)piperidin-4-yl]-1-({3-[(methylsulfanyl)methyl]-1,2,4-oxadiazol-5-yl}methyl)-6-phenylthieno[3,2-d]pyrimidine-2,4(1H,3H)-dione] as the compound, how does the IC50 (human PDE5) read?
A: < 10 nM

Q: What about the IC50 (PDE4B1) of the same compound?
A: 1 to 10 nM

Q: Which results are given for `CCOc1cc2c(cc1OC)C(c1ccc(C(=O)N3CCC(n4c(=O)c5sc(-c6ccccc6)cc5n(Cc5ccn(CC)n5)c4=O)CC3)cc1)=N[C@@H]1CCSC[C@H]21` [Example 18, 3-[1-({4-[(4aR,10bR)-9-ethoxy-8-methoxy-3,4,4a,10b-tetrahydro-1H-thiopyrano[4,3-c]isoquinolin-6-yl]phenyl}carbonyl)piperidin-4-yl]-1-[(1-ethyl-1H-pyrazol-3-yl)methyl]-6-phenylthieno[3,2-d]pyrimidine-2,4(1H,3H)-dione]?
A: IC50 (human PDE5): > 100 nM; IC50 (PDE4B1): 1 to 10 nM

Q: For `CCOc1cc2c(cc1OC)C(c1ccc(C(=O)N3CCC(n4c(=O)c5sc(-c6ccc(F)cc6OC)cc5n(Cc5nc(CC)no5)c4=O)CC3)cc1)=N[C@@H]1CCSC[C@H]21` [Example 43, 3-[1-({4-[(4aR,10bR)-9-ethoxy-8-methoxy-3,4,4a,10b-tetrahydro-1H-thiopyrano[4,3-c]isoquinolin-6-yl]phenyl}carbonyl)piperidin-4-yl]-1-[(3-ethyl-1,2,4-oxadiazol-5-yl)methyl]-6-(4-fluoro-2-methoxyphenyl)thieno[3,2-d]pyrimidine-2,4(1H,3H)-dione], which IC50 (human PDE5) is on record?
A: 10 to 100 nM

Q: And the IC50 (PDE4B1)?
A: 1 to 10 nM

Q: `CCOc1cc2c(cc1OC)C(c1ccc(C(=O)N3CCC(n4c(=O)c5sc(-c6ccc7c(c6)OCO7)cc5n(Cc5nnn(CC)n5)c4=O)CC3)cc1)=N[C@@H]1CCSC[C@H]21` [Example 30, 6-(1,3-benzodioxol-5-yl)-3-[1-({4-[(4aR,10bR)-9-ethoxy-8-methoxy-3,4,4a,10b-tetrahydro-1H-thiopyrano[4,3-c]isoquinolin-6-yl]phenyl}carbonyl)piperidin-4-yl]-1-[(2-ethyl-2H-tetrazol-5-yl)methyl]thieno[3,2-d]pyrimidine-2,4(1H,3H)-dione] was tested. Which IC50 (human PDE5) did it give?
A: < 10 nM

Q: What about the IC50 (PDE4B1) of the same compound?
A: 1 to 10 nM

Q: `CCOc1cc2c(cc1OC)C(c1ccc(C(=O)N3CCC(n4c(=O)c5sc(-c6ccc7c(c6)OCO7)cc5n(Cc5nc(CC)no5)c4=O)CC3)cc1)=N[C@@H]1CCSC[C@H]21` [Example 46, 6-(1,3-benzodioxol-5-yl)-3-[1-({4-[(4aR,10bR)-9-ethoxy-8-methoxy-3,4,4a,10b-tetrahydro-1H-thiopyrano[4,3-c]isoquinolin-6-yl]phenyl}carbonyl)piperidin-4-yl]-1-[(3-ethyl-1,2,4-oxadiazol-5-yl)methyl]thieno[3,2-d]pyrimidine-2,4(1H,3H)-dione] was tested. Which IC50 (human PDE5) did it give?
A: < 10 nM

Q: And the IC50 (PDE4B1)?
A: 1 to 10 nM

Q: What does the source list for `CCOc1cc2c(cc1OC)C(c1ccc(C(=O)N3CCC(n4c(=O)c5sc(-c6ccccc6)cc5n(Cc5noc(C)n5)c4=O)CC3)cc1)=N[C@@H]1CCSC[C@H]21` [Example 2, 3-[1-({4-[(4aR,10bR)-9-ethoxy-8-methoxy-3,4,4a,10b-tetrahydro-1H-thiopyrano[4,3-c]isoquinolin-6-yl]phenyl}carbonyl)piperidin-4-yl]-1-[(5-methyl-1,2,4-oxadiazol-3-yl)methyl]-6-phenylthieno[3,2-d]pyrimidine-2,4(1H,3H)-dione]?
A: IC50 (human PDE5): < 10 nM; IC50 (PDE4B1): 1 to 10 nM

Q: How did the IC50 (human PDE5) turn out when `CCOc1cc2c(cc1OC)C(c1ccc(C(=O)N3CCC(n4c(=O)c5sc(-c6ccc(F)cc6)cc5n(Cc5nc(CC)no5)c4=O)CC3)cc1)=N[C@@H]1CCSC[C@H]21` [Example 47, 3-[1-({4-[(4aR,10bR)-9-ethoxy-8-methoxy-3,4,4a,10b-tetrahydro-1H-thiopyrano[4,3-c]isoquinolin-6-yl]phenyl}carbonyl)piperidin-4-yl]-1-[(3-ethyl-1,2,4-oxadiazol-5-yl)methyl]-6-(4-fluorophenyl)thieno[3,2-d]pyrimidine-2,4(1H,3H)-dione] was run?
A: < 10 nM

Q: And the IC50 (PDE4B1)?
A: 1 to 10 nM

Q: How did the IC50 (human PDE5) turn out when `CCOc1cc2c(cc1OC)C(c1ccc(C(=O)N3CCC(n4c(=O)c5sc(-c6ccc(F)cc6)cc5n(Cc5nnn(CC)n5)c4=O)CC3)cc1)=N[C@@H]1CCSC[C@H]21` [Example 40, 3-[1-({4-[(4aR,10bR)-9-ethoxy-8-methoxy-3,4,4a,10b-tetrahydro-1H-thiopyrano[4,3-c]isoquinolin-6-yl]phenyl}carbonyl)piperidin-4-yl]-1-[(2-ethyl-2H-tetrazol-5-yl)methyl]-6-(4-fluorophenyl)thieno[3,2-d]pyrimidine-2,4(1H,3H)-dione] was run?
A: < 10 nM

Q: What about the IC50 (PDE4B1) of the same compound?
A: > 10 nM

Q: For `CCOc1cc2c(cc1OC)C(c1ccc(C(=O)N3CCC(n4c(=O)c5sc(-c6ccccc6)cc5n(Cc5cn(CC)nn5)c4=O)CC3)cc1)=N[C@@H]1CCSC[C@H]21` [Example 23, 3-[1-({4-[(4aR,10bR)-9-ethoxy-8-methoxy-3,4,4a,10b-tetrahydro-1H-thiopyrano[4,3-c]isoquinolin-6-yl]phenyl}carbonyl)piperidin-4-yl]-1-[(1-ethyl-1H-1,2,3-triazol-4-yl)methyl]-6-phenylthieno[3,2-d]pyrimidine-2,4(1H,3H)-dione], which IC50 (human PDE5) is on record?
A: > 100 nM

Q: And the IC50 (PDE4B1)?
A: 1 to 10 nM

Q: For `CCOc1cc2c(cc1OC)C(c1cccc(C(=O)N3CCC(n4c(=O)c5sc(-c6cc(F)ccc6OC)cc5n(Cc5nnn(CC)n5)c4=O)CC3)c1)=N[C@@H]1CCSC[C@H]21` [Example 35, 3-[1-({3-[(4aR,10bR)-9-ethoxy-8-methoxy-3,4,4a,10b-tetrahydro-1H-thiopyrano[4,3-c]isoquinolin-6-yl]phenyl}carbonyl)piperidin-4-yl]-1-[(2-ethyl-2H-tetrazol-5-yl)methyl]-6-(5-fluoro-2-methoxyphenyl)thieno[3,2-d]pyrimidine-2,4(1H,3H)-dione], which IC50 (human PDE5) is on record?
A: < 10 nM

Q: And the IC50 (PDE4B1)?
A: 1 to 10 nM

Reference: patent US9018175B2 (Takeda GmbH, priority 2009, dated 2015)
